In data set [1] the test system is NIH3T3. Nature of the data set: Cell growth inhibition assay (SRB), NIH3T3. Format: cell-based. Conditions: Mus musculus, NIH3T3, 48 h. Here is the method:
Cell growth inhibition assays were performed using a protocol standardized by National Cancer Institute (NCI) for evaluating anti-cancer drugs. Various mammalian cell lines were used for the assays. Briefly, the cells were inoculated into 96 well microtiter plates. After cell inoculation, the microtiter plates were incubated for cell growth for 24 h prior to the addition of compounds. After 24 h, two plates of each cell line were fixed in situ with TCA, to represent a measurement of the cell population for each cell line at the time of compound addition (Tz). Test compounds were solubilized in dimethyl sulfoxide. At the time of test compound addition, five 10-fold or ½ log serial dilutions were made to provide a total of five test compound concentrations plus control. Aliquots of 100 μl of these different test compound dilutions were added to the appropriate microtiter wells already containing 100 μl of the medium, resulting in the required final test compound concentrations. […] The bound stain was subsequently solubilized with 10 mM trizma base, and the absorbance was read on an automated plate reader at a wavelength of 515 nm. Using the seven absorbance measurements [time zero, (Tz), control growth, (C), and test growth in the presence of a compound at the five concentration levels (Ti)], the percentage growth was calculated at each of the test compound concentrations levels.

Data set [2] in a line: PO pharmacokinetic study, oral exposure (Example B3). It is filed as in vivo. Conditions: for AUC at 24 h: blood, po, 10 mg/kg gavage; for oral absorption, systemic exposure: in words. Here is the method: The blood concentration of the compound was then determined at 0 (pre-dosing), 5 min, 15 min, 30 min, 1 hr, 2 hr, 4 hr, 8 hr, 24 hr time points by LC-MS/MS analysis (See Tables 1 and 2, vide supra).

The subject of data set [3] is carbon tetrachloride (CCl4)-induced liver fibrosis NASH murine model. Briefly: CCl4-induced liver fibrosis NASH murine model. It is filed as in vivo, mouse. Conditions: CCl4 mice. Here is the method: CCl4 is a hepatotoxin that induces acute liver injury in mice and induces oxidative damage, inflammation, and liver fibrosis in mice, independent of liver steatosis, and thus is considered as a “pure” fibrotic model.
C57Bl6 male mice at the age of 7-8 weeks were randomized into 3 groups: vehicle, CCl4 alone treatment, CCl4 plus Compound treatment, n=7. CCl4 was diluted in olive oil (1:5 v/v), and intraperitoneally injected at a dose of 750 μl/kg to the mice, twice a week for 6 weeks. Compound treatment started at the beginning of CCl4 injection. At the end of treatment, the mice were euthanized and liver tissue was collected. For histology analyses, the liver tissue was fixed and paraffin embedded; tissue sections were stained with hematoxylin and eosin (H&E), or with Picrosirius red. The fibrosis severities were scored by a board-certified pathologist based on Picrosirius red stain of the liver. For immunoblotting analyses, the liver tissue was homogenized and the proteins were separated by native page gel electrophoresis. The levels of Collagen I and GAPDH were detected by Collagen I polyclonal antibody (Abcam ab34710) and GAPDH (14C10) Rabbit mAb (Cell signaling #2118).

Data set [4] relates to TGF-β signaling pathway. Briefly: TGF-β signaling pathway activation (Smad2/3 phosphorylation) in T cells (Jurkat, primary mouse CD8+), immunoblotting. Format: cell-based, human Jurkat cells and mouse primary T-cells. As to conditions: Jurkat and mouse primary T-cells, 6 hours, FIG. 19. Here is the method: Jurkat cells (a human T-cell cancer cell line) and the primary mouse CD8+ cells (T-cells) were tested. The cells were treated with TGF-β (10 ng/ml) alone, or TGF-β (10 ng/ml) plus compound at various concentrations (e.g. 0.5, 1.0, 2.0 μM), or treated with vehicle (control), for 6 hours. The cells were then harvested, and cell lysates were subjected to immunoblotting analyses with antibodies against Smad2/3, phosphorylated Smad2/3, and GAPDH.
(In western blotting, separated proteins are transferred to a membrane and probed.)

The subject of data set [5] is TGF-β signaling pathway. Briefly: TGF-β signaling pathway activation (Smad2/3 phosphorylation) in LX-2 cells, immunoblotting. It is filed as cell-based, human. Conditions: 6 hrs, FIG. 17B. Here is the method:
Cells were then harvested, and immunoblotting analyses was performed with antibodies against p-Smad2/3 (phosphorylated Smad2/3), Smad2/3, or GAPDH, as indicated.

Data set [6] relates to MC38 cells. Briefly: Anti-cancer effect in combination with a PD-1 inhibitor, MC38 cells transplanted in liver. It is filed as in vivo, mouse. As to conditions: in words. An excerpt: FIG. 20A is the experimental design (see Example B12). Briefly, C57/Bl6 mice intrahepatically transplanted with MC38 cancer cells (day 0) were subject to various treatments starting on day 7: aPD-1 or isotype, mice were either treated with PD-1 antibody or its isotype antibody (control) by intraperitoneal (IP) injection on indicated days (PD-1 antibody has a half-life of over 1 week in mice); #64 or vehicle, mice were either treated with Compound #64 or vehicle by daily gavage. FIG. 20B is a table depicting outcomes of the experiments described in FIG. 20A and Example B12. aPD-1+#64 represents mice treated with PD-1 antibody (IP) and #64 (daily gavage); aPD-1 represents mice treated with PD-1 antibody (IP) and vehicle (gavage); control, represents mice treated with isotype antibody (IP) and vehicle (gavage); n is number of mice in each group. Tumor-positive is the number of tumor-bearing mice in each group; tumor-free is the number of tumor-free mice in each group; tumor-free % is the percentage of tumor-free animals in each group. […]
The experimental design is illustrated in FIG. 20A. Mouse colon cancer cells, MC38, were transplanted in livers of immune competent B57/Bl6 mice, and the effect of the combinatory treatment was determined. […] Tumor incidence and volume were determined.

“Also recorded” adds a separate entry of the source. Bounds are passed on as bounds.

For `COCCN(CCOC)Cc1cc(Cl)cc(C(=O)Nc2nc3ccc(C(F)(F)F)cc3s2)c1O` [Compound 25, 3-((bis(2-methoxyethyl)amino)methyl)-5-chloro-2-hydroxy-N-(6-(trifluoromethyl)benzo[d]thiazol-2-yl)benzamide], the concentration for 50% growth inhibition (GI50) in data set [1] was > 20 µM. In data set [2], the AUC at 24 h is 10000 to 30000 ng·h/mL and the “oral absorption, systemic exposure” value is recorded as “excellent”. In addition, in data set [3] (7.5 mg/kg/day, 6 weeks), the “effect on fibrosis formation and fibrosis scores” value is “reduced fibrosis formation and improved fibrosis scores; also recorded: reduces fibrosis in CCl4 treated animals”. The “effect on collagen levels” value in data set [3] (immunoblotting) is “reduces collagen levels”.
For the compound `COCCOCc1cc(C(F)(F)F)cc2sc(NC(=O)c3cc(Cl)cc(CN4C[C@@H](C)O[C@@H](C)C4)c3O)nc12` [Compound 64, 5-chloro-3-((cis-2,6-dimethylmorpholino)methyl)-2-hydroxy-N-(4-((2-methoxyethoxy)methyl)-6-(trifluoromethyl)benzo[d]thiazol-2-yl)benzamide], in data set [4], the “effect on TGF-β signaling pathway activation in T cells” value is “effectively blocks TGF-β signaling pathway activation in T cells”. In addition, the “effect on TGF-β signaling pathway activation (Smad2/3 phosphorylation)” value in data set [5] is “blocks activation of TGF-β signaling pathway at early stages by inhibiting Smad2/3 phosphorylation”. Also, the “efficacy in combinatory therapy with PD-1 antibody in treating metastatic cancer in mice” value in data set [6] is “efficacious in combinatory therapy with PD-1 antibody”. In data set [2], the AUC at 24 h was 10000 to 30000 ng·h/mL and the “oral absorption, systemic exposure” value is “excellent”.

The term GI50 denotes the concentration at which growth is held to half of that of the control. Low readings indicate greater sensitivity of the cells, high ones lower sensitivity of the cells. Usually AUC stands for the area under the concentration-time curve, a measure of exposure. Read a low AUC as low exposure.
